Data on ten molecules can be found in patent US7465738B2, “Compounds useful as promoters of SMN2” (Vertex Pharmaceuticals Incorporated, priority 2003, dated 2008).

The structures appear in SMILES notation.

One test deals with SMN2 promoter. Description: SMN2 promoter-β-lactamase (BLA) assay in NSC-34 cells. Particulars: 15 NSC-34 SMN2-promoter-BLA clones with low BLA activity. The format is cell-based, mouse. From the text:
Compounds were screened for their ability to increase SMN2 gene transcription. In general the screening method of the invention involves the use of an SMN2 promoter-β-lactamase (BLA) assay in NSC-34 cells. […] This construct was transfected into the NSC-34 cells and a stable pool of SMN2-promoter-BLA cells was generated. […] Optimized protocols are presented in the procedures below. […] Subculture Protocol for and the […]-Bla Cell Line (#5.3) and the SMN2 Promoter-Bla Cell Line (#11). […] Cells were kept at a density between 50,000 and 500,000/ml and were fed every three days with DMEM 5% FCS and incubated at 37° C., 5% CO2 and 90% humidity. • b. Cells were then plated at low density (50,000 cells/ml). • c. […] Cells were fed by manually pipetting the cells, and passaging the cells 1 to 10 to a new flask. […] Standard Assay Protocol #1 for SMN2 Promoter Assays in 96-Well Plates: • e. Cells were washed twice with cold PBS by spinning down and resuspending at 250,000 cells/ml. • f. Cells were resuspended in DMEM 0% FCS at a density of 500,000 cells/ml. • g. Cells were then dispensed 100 μl cells per well of a 96-well, black wall, clear bottom assay plate (Corning Costar, Cat. # 3904). Plate can be pre-formatted with test compounds. • h. […] Cells were incubated for 1 hour in the dark at room temperature. • 6×CCF2-AM Staining Solution: • 60 μl of Sol B • 6 μl of CCF2-AM (1 mM) • 12 μl of Probenecid (1 M, Sigma, Cat # 8761) • 1 μl of Sol C • j. Assay plates were read on a fluorimeter (for example, the Cytofluor 4000 from Perceptive Biosystems) using the following two settings: 460/40 nm emission with 395/25 nm excitation, and 530/25 nm emission with 395/25 nm excitation. • k. […] Standard Assay Protocol #2 for SMN2 Promoter Assays in 96-Well Plates: • l. Cells were washed twice with cold PBS by spinning down and resuspending at 250,000 cells/ml. • m. Cells were then resuspended in DMEM 1% FCS Charcoal Dextran-treated (Hyclone, Cat # SH30038.05) at a density of […]. • n. Cells were then incubated for 24 hours at 37° C. • o. 100 μl cells per well were then dispensed in a 96-well, black wall, clear bottom assay plate (Corning Costar, Cat. # 3904). Plate can be pre-formatted with test compounds. • p. […] Cells were incubated for one hour in the dark at room temperature. • 6×CCF2-AM Staining Solution: • 60 μl of Sol B • 6 μl of CCF2-AM (1 mM) • 12 μl of Probenecid (1 M, Sigma, Cat# 8761) • 1 μl of SolC • r. Assay plates were read on a fluorimeter (for example, the Cytofluor 4000 from Perceptive Biosystems) using the following two settings: 460/40 nm emission with 395/25 nm excitation, and 530/25 nm emission with 395/25 nm excitation. • s.
On to `CC(C)Cn1c(=O)n(C)c(=O)c2[nH]cnc21` [IBMX, reference compound], for which the “changes in BLA activity after treatment” value is “none showed changes in BLA activity”.

The test is the same for the next values; noted with them: Mus musculus; SMN2 promoter BLA assay, NSC-34 cells, 96-well plates.
`Nc1nc(N)c2c(Sc3ccc(Cl)cc3)cccc2n1` [Compound I-2] yielded an EC50 of 530 nM.
Regarding `Nc1nc(N)c2c(Oc3ccc(F)cc3)cccc2n1` [Compound I-3], the EC50 is 150 nM. Compared with the last molecule, the EC50 is about 3.5-fold lower.
In turn, `Nc1nc(N)c2c(Oc3ccccc3)cccc2n1` [Compound I-5] returned an EC50 of 250 nM.
The same measure, in the same setting: the result for `CCOc1cccc2nc(N)nc(N)c12` [Compound I-6] reads 600 nM.
On the same count and under the same terms, the result for `CN(C)/C=C/c1c(C=O)c2cc([N+](=O)[O-])ccc2n1C` [Compound V-1, 2-((E)-2-(dimethylamino)vinyl)-1-methyl-5-nitro-1H-indole-3-carbaldehyde] reads 6800 nM; that for `O=C1C(=O)N(C(=O)NC2CCCCC2)c2ccc(Br)cc21` [VI-1], 10000 nM; that for `OCCNCCCOc1cccc(Cl)c1Cl` [VII-1], 3000 nM.
Take `CCCN(Cc1ccc([N+](=O)[O-])cc1)c1nc(O)nc(NC2CCCC2)n1` [VIII-1]: it took 9000 nM to reach a half-maximal effect (EC50). This EC50 is about 3-fold higher than that of the molecule before.

Still in this test, the particulars now being: clone SMN2BLAClone11.
On to `CCCC(=O)[O-].[Na+]` [sodium butyrate, reference compound], for which the “increase in BLA expression upon stimulation” value is recorded as 1.8 fold.

As usually defined, the EC50 is the concentration giving half of the maximal effect. Low values mean a more potent agent, high ones a less potent agent.
